Source: ChEMBL document CHEMBL4118118, “Hydrophobic structure of hairpin ten-ring pyrrole-imidazole polyamides enhances tumor tissue accumulation/retention in vivo” (Bioorg Med Chem, 2018)

How the values were obtained:
[1] = Retention time of the compound by reverse-phase HPLC method; type: physicochemical
[2] = Octanol water partition coefficient, log P of the compound by reverse-phase HPLC method; type: physicochemical
[3] = Drug uptake in tumor of nude BALB/c mouse xenografted with human LS180 cells at 1 mg/kg, iv measured at 9 days post administration by DAPI-based confocal laser microscopic analysis; type: ADME, organism-based, Neoplasm; settings: in vivo, 216 h
[4] = Drug localization in nucleus of human SW480 cells at 1 uM after 2 hrs by DAPI-fluoresecence based confocal laser microscopy; type: ADME, subcellular; settings: sw480, 2 h
[5] = Drug uptake in tumor of nude BALB/c mouse xenografted with human LS180 cells assessed as increase in mean fluorescence intensity at 1 mg/kg, iv measured at 3 hrs post administration by fluorescence-based imaging analysis; type: ADME, organism-based, Neoplasm; settings: in vivo
[6] = Drug uptake in tumor of human SW480 cells xenografted in nude BALB/c mouse assessed as increase in mean fluorescence intensity at 1 mg/kg, iv measured at 0.25 to 72 hrs post administration by fluorescence-based imaging analysis; type: ADME, organism-based, Neoplasm; settings: in vivo
[7] = Drug uptake in tumor of nude BALB/c mouse xenografted with human LS180 cells at 1 mg/kg, iv measured at 48 hrs post administration by fluorescence-based imaging analysis; type: ADME, organism-based, Neoplasm; settings: in vivo
[8] = Drug uptake in heart of nude BALB/c mouse xenografted with human LS180 cells at 1 mg/kg, iv measured at 3 to 9 days post administration by DAPI-based confocal laser microscopic analysis; type: ADME, organism-based; settings: in vivo
[9] = Drug uptake in tumor of nude BALB/c mouse xenografted with human LS180 cells at 1 mg/kg, iv measured at 2 hrs post administration by fluorescence-based imaging analysis; type: ADME, organism-based, Neoplasm; settings: in vivo
[10] = Drug localization in nucleus of human LS180 cells at 1 uM after 2 hrs by DAPI-fluoresecence based confocal laser microscopy; type: ADME, subcellular; settings: ls180, 2 h
[11] = Drug uptake in tumor of nude BALB/c mouse xenografted with human LS180 cells assessed as increase in mean fluorescence intensity at 1 mg/kg, iv measured at 48 hrs post administration by fluorescence-based imaging analysis; type: ADME, organism-based, Neoplasm; settings: in vivo
[12] = Drug uptake in kidneys of nude BALB/c mouse xenografted with human LS180 cells at 1 mg/kg, iv measured at 3 days post administration by DAPI-based confocal laser microscopic analysis; type: ADME, organism-based, Kidney; settings: in vivo, 72 h
[13] = Drug uptake in human LS180 cells up to 1 uM after 24 hrs by fluorospectrometry; type: ADME, cell-based; settings: ls180, 24 h
[14] = Drug uptake in tumor of nude BALB/c mouse xenografted with human LS180 cells at 1 mg/kg, iv measured after 4 days post administration by fluorescence-based imaging analysis; type: ADME, organism-based, Neoplasm; settings: in vivo, 96 h
[15] = Drug uptake in lungs of nude BALB/c mouse xenografted with human LS180 cells at 1 mg/kg, iv measured at 3 to 9 days post administration by DAPI-based confocal laser microscopic analysis; type: ADME, organism-based, Lung; settings: in vivo
[16] = Drug uptake in human LS180 cells up to 1 uM in presence of 4 degC temperature for 2 hrs by fluorospectrometry; type: ADME, cell-based; settings: ls180, 2 h
[17] = Drug uptake in tumor of nude BALB/c mouse xenografted with human LS180 cells at 1 mg/kg, iv measured at 3 days post administration by DAPI-based confocal laser microscopic analysis; type: ADME, organism-based, Neoplasm; settings: in vivo, 72 h
[18] = Drug uptake in spleen of nude BALB/c mouse xenografted with human LS180 cells at 1 mg/kg, iv measured at 3 to 9 days post administration by DAPI-based confocal laser microscopic analysis; type: ADME, organism-based; settings: in vivo
[19] = Drug uptake in nude BALB/c mouse body cavity xenografted with human LS180 cells assessed as increase in mean fluorescence intensity at 1 mg/kg, iv measured at 24 hrs post administration by fluorescence-based imaging analysis; type: ADME, organism-based; settings: in vivo
[20] = Drug uptake in human SW480 cells up to 1 uM after 24 hrs by fluorospectrometry; type: ADME, cell-based; settings: sw480, 24 h
[21] = Drug uptake in liver of nude BALB/c mouse xenografted with human LS180 cells at 1 mg/kg, iv measured at 3 days post administration by DAPI-based confocal laser microscopic analysis; type: ADME, organism-based; settings: in vivo, 72 h
[22] = Drug uptake in tumor of nude BALB/c mouse xenografted with human LS180 cells assessed as increase in mean fluorescence intensity at 1 mg/kg, iv measured at 0.25 to 72 hrs post administration by fluorescence-based imaging analysis; type: ADME, organism-based, Neoplasm; settings: in vivo
[23] = Drug uptake in human SW480 cells xenografted in nude BALB/c mouse at 1 mg/kg, iv measured after 9 days post administration by fluorescence-based imaging analysis; type: ADME, organism-based, Neoplasm; settings: in vivo, 216 h
[24] = Drug uptake in tumor of nude BALB/c mouse xenografted with human SW480 cells at 1 mg/kg, iv measured up to 22 days post administration by fluorescence-based imaging analysis; type: ADME, organism-based, Neoplasm; settings: in vivo, 528 h
[25] = Drug uptake in human SW480 cells after 24 hrs by fluorospectrometry; type: ADME, cell-based; settings: sw480, 24 h
[26] = Drug uptake in tumor of nude BALB/c mouse xenografted with human LS180 cells assessed as increase in mean fluorescence intensity at 1 mg/kg, iv measured at 3 to 72 hrs post administration by fluorescence-based imaging analysis; type: ADME, organism-based, Neoplasm; settings: in vivo
[27] = Drug uptake in nude BALB/c mouse body cavity xenografted with human LS180 cells assessed as increase in mean fluorescence intensity at 1 mg/kg, iv measured at 1 hr post administration by fluorescence-based imaging analysis; type: ADME, organism-based; settings: in vivo
[28] = Drug uptake in human LS180 cells after 24 hrs by fluorospectrometry; type: ADME, cell-based; settings: ls180, 24 h
[29] = Drug uptake in tumor of nude BALB/c mouse xenografted with human LS180 cells at 1 mg/kg, iv measured after 9 days post administration by fluorescence-based imaging analysis; type: ADME, organism-based, Neoplasm; settings: in vivo, 216 h
[30] = Drug uptake in tumor of nude BALB/c mouse xenografted with human LS180 cells assessed as mean fluorescence intensity at 1 mg/kg, iv measured at 72 hrs post administration by fluorescence-based imaging analysis; type: ADME, organism-based, Neoplasm; settings: in vivo
Mus musculus [31] = test: Drug uptake in non-tumor tissue area of nude BALB/c mouse xenografted with human LS180 cells assessed as increase in mean fluorescence intensity at 1 mg/kg, iv measured at 5 mins post administration by fluorescence-based imaging analysis; type: ADME, organism-based; settings: in vivo
[32] = Drug uptake in tumor of nude BALB/c mouse xenografted with human LS180 cells assessed as increase in mean fluorescence intensity at 1 mg/kg, iv measured at 6 hrs post administration by fluorescence-based imaging analysis; type: ADME, organism-based, Neoplasm; settings: in vivo
Mus musculus [33] = test: Drug uptake in non-tumor tissue area of nude BALB/c mouse xenografted with human LS180 cells assessed as increase in mean fluorescence intensity at 1 mg/kg, iv measured at 24 hrs post administration by fluorescence-based imaging analysis; type: ADME, organism-based; settings: in vivo

| Retention_time [1] [min] | logP [2] | Drug uptake [3] | Drug uptake [4] | Drug uptake [6] | Drug uptake [7] [%] | Drug uptake [8] | Drug uptake [9] | Drug uptake [10] | Drug uptake [12] | Drug uptake [13] | Drug uptake [15] | Drug uptake [16] | Drug uptake [17] | Drug uptake [18] | Drug uptake [19] | Drug uptake [20] | Drug uptake [21] | Drug uptake [29] | other results | Structure (SMILES) |
| --- | --- | --- | --- | --- | --- | --- | --- | --- | --- | --- | --- | --- | --- | --- | --- | --- | --- | --- | --- | --- |
| 11.4 | 1.46 |  |  |  |  |  |  |  |  |  |  |  |  |  |  |  |  |  |  | CN(C)CCCNC(=O)CCNC(=O)c1cc(NC(=O)c2cc(NC(=O)CCNC(=O)c3cc(NC(=O)c4cc(NC(=O)c5cc(NC(=O)CCCNC(=O)c6cc(NC(=O)c7cc(NC(=O)c8cc(NC(=O)CCNC(=O)c9nc(NC(=O)c%10nc(NC(=O)CCNC(=S)Nc%11ccc(-c%12c%13ccc(=O)cc-%13oc%13cc(O)ccc%12%13)c(C(=O)O)c%11)cn%10C)cn9C)cn8C)cn7C)cn6C)cn5C)cn4C)cn3C)cn2C)cn1C |
| 8.86 | 1.19 | Not Active | Active | Active | 50 | Not Active | Active | Active | Active | Active | Not Active | Not Active | Active | Not Active | Not Active | Active | Active |  | Drug uptake [5]: Active; Drug uptake [11]: Not Active; Drug uptake [14]: Not Active | CN(C)CCCNC(=O)CCNC(=O)c1cc(NC(=O)c2cc(NC(=O)CCNC(=O)c3cc(NC(=O)c4cc(NC(=O)c5cc(NC(=O)CCCNC(=O)c6nc(NC(=O)c7nc(NC(=O)c8nc(NC(=O)CCNC(=O)c9nc(NC(=O)c%10nc(NC(=O)CCNC(=S)Nc%11ccc(-c%12c%13ccc(=O)cc-%13oc%13cc(O)ccc%12%13)c(C(=O)O)c%11)cn%10C)cn9C)cn8C)cn7C)cn6C)cn5C)cn4C)cn3C)cn2C)cn1C |
|  |  |  | Not Active |  |  |  |  | Not Active |  |  |  |  |  |  |  |  |  |  | Drug uptake [22]: Not Active | O=C(O)c1ccccc1-c1c2ccc(=O)cc-2oc2cc(O)ccc12 |
| 11.73 | 1.5 | Active | Active | Active | 50 | Not Active | Active | Active | Active |  | Not Active | Active | Active | Not Active | Not Active |  | Active | Active | Drug uptake [23]: Active; Drug uptake [24]: Active; Drug uptake [25]: Dose-dependent effect; Drug uptake [26]: Active; Drug uptake [27]: Active; Drug uptake [28]: Dose-dependent effect | CN(C)CCCNC(=O)CCNC(=O)c1cc(NC(=O)c2cc(NC(=O)CCNC(=O)c3cc(NC(=O)c4cc(NC(=O)c5cc(NC(=O)CCCNC(=O)c6cc(NC(=O)c7cc(NC(=O)c8cc(NC(=O)CCNC(=O)c9nc(NC(=O)c%10cc(NC(=O)CCNC(=S)Nc%11ccc(-c%12c%13ccc(=O)cc-%13oc%13cc(O)ccc%12%13)c(C(=O)O)c%11)cn%10C)cn9C)cn8C)cn7C)cn6C)cn5C)cn4C)cn3C)cn2C)cn1C |
| 10.97 | 1.42 | Not Active | Active | Active | 50 | Not Active | Active | Active | Active | Active | Not Active |  | Active | Not Active |  | Active | Active | Not Active | Drug uptake [30]: Active; Drug uptake (Mus musculus [31]): Active; Drug uptake [32]: Active; Drug uptake (Mus musculus [33]): Not Active | CN(C)CCCNC(=O)CCNC(=O)c1cc(NC(=O)c2cc(NC(=O)CCNC(=O)c3cc(NC(=O)c4cc(NC(=O)c5cc(NC(=O)CCCNC(=O)c6cc(NC(=O)c7cc(NC(=O)c8nc(NC(=O)CCNC(=O)c9nc(NC(=O)c%10nc(NC(=O)CCNC(=S)Nc%11ccc(-c%12c%13ccc(=O)cc-%13oc%13cc(O)ccc%12%13)c(C(=O)O)c%11)cn%10C)cn9C)cn8C)cn7C)cn6C)cn5C)cn4C)cn3C)cn2C)cn1C |
| 10.48 | 1.36 |  |  |  |  |  |  |  |  |  |  |  |  |  |  |  |  |  |  | CN(C)CCCNC(=O)CCNC(=O)c1cc(NC(=O)c2cc(NC(=O)CCNC(=O)c3cc(NC(=O)c4cc(NC(=O)c5cc(NC(=O)CCCNC(=O)c6cc(NC(=O)c7nc(NC(=O)c8nc(NC(=O)CCNC(=O)c9nc(NC(=O)c%10nc(NC(=O)CCNC(=S)Nc%11ccc(-c%12c%13ccc(=O)cc-%13oc%13cc(O)ccc%12%13)c(C(=O)O)c%11)cn%10C)cn9C)cn8C)cn7C)cn6C)cn5C)cn4C)cn3C)cn2C)cn1C |
